According to US12534436B2, “Disubstituted adamantyl derivative or pharmaceutically acceptable salt thereof, and pharmaceutical composition for suppressing cancer growth comprising same as active ingredient” (ONECUREGEN CO., LTD., priority 2020, dated 2026):

Key:
[1] = tested on: HepG2 xenografted tumors; assay: HepG2 xenograft mouse model; assay type: in vivo, mice
Source text: In the HepG2 xenograft mouse model, the efficacy of LW1564 (compound 21-3) on tumor proliferation was investigated. All animal experiments were approved and performed according to the guidelines of the Institutional Animal Care and Use Committee of the Korea Research Institute of Bioscience & Biotechnology (Daejeon, Korea). Specific pathogen-free female nude mice (6 weeks old) were inoculated with HepG2 cells (1×10^7) subcutaneously on the right flank. When tumor volumes reached 100 to 150 mm^3, mice were randomly assigned to vehicle and LW1564 (compound 21-3) treatment groups (n=6). LW1564 (compound 21-3) (10 mg/kg) was administered intraperitoneally daily for 2 weeks. The tumor size was measured using a microcalliper, and the tumor volume was calculated using a standard volume: length×width^2×0.5. Significant differences between the two groups were determined by Student's t-test.

[2] = tested on: intracellular oxygen; assay: Intracellular oxygen with hypoxia probe MAR, HepG2 cells; assay type: cell-based, human; conditions: hypoxic conditions, 6 hours, 500 nM MAR (FIG. 3D)
Procedure: Since a decrease in mitochondrial respiration means an increase in the amount of intracellular oxygen, it was evaluated whether the amount of intracellular oxygen increased using MAR, an azo-based hypoxia probe that produces fluorescence under hypoxic conditions. Under hypoxic states, HepG2 cells were cultured with LW1564 (compound 21-3) for 6 hours, stained with 500 nM MAR according to the manufacturer's instructions (Chou, T. C. Theoretical basis, experimental design, and computerized simulation of synergism and antagonism in drug combination studies. Pharmacol. Rev. 58, 621-681 (2006)), and analyzed with an IncuCyte ZOOM® system (Essen BioScience, MI, USA).

[3] = tested on: AMPK signaling; assay: Western blot of AMPK/mTOR signaling in HepG2 cells; assay type: cell-based, human
[4] = tested on: Complex II/III; assay: Mitochondrial respiration assay, complex II/III (succinate); assay type: cell-based, human; conditions: HepG2 cells (FIG. 4C)
Procedure: Compounds that suppress mitochondrial respiration promote degradation of HIF-1α by increasing cellular oxygen content. Accordingly, it was investigated whether LW1564 (compound 21-3) affected mitochondrial respiration by measuring the oxygen consumption rate (OCR). Oxygen consumption was measured using an Oxytherm Clark-type electrode system (Hansatech, Norfolk, UK) (Chou, T. C. Theoretical basis, experimental design, and computerized simulation of synergism and antagonism in drug combination studies. Pharmacol. Rev. 58, 621-681 (2006)). HepG2 cells (2×10^7) were cultured with 2 μM LW1564 (compound 21-3) for 6 hours, collected, and then OCR was measured at 37° C. for 5 minutes with a thermoregulated controlled circulating system. For […] studies, digitonin-permeabilised HepG2 cells (2×10^7) were read on a detection device containing 2 ml of respiratory buffer (0.25 M sucrose, 2 mM KH2PO4, 5 mM MgCl2, 1 mM EDTA, 1 mM ADP, 20 mM MOPS, pH 7.4). The following substrates, which provide electrons to the components in the ETC, were then added: 5 mM sodium pyruvate, 5 mM sodium malate, 5 mM sodium succinate, 5 mM L-ascorbic acid and 0.2 mM N,N,N,N-tetra methyl-p-phenylenediamine (TMPD). Complex I, III and IV inhibitors (rotenone, antimycin A and KCN, respectively) were added to a final concentration of 1 μM. […]

[5] = tested on: GLUT1, PDK1 and VEGF mRNA; assay: qPCR of HIF-1 target genes in HepG2 cells; assay type: cell-based, human; conditions: hypoxia, HepG2 cells (FIG. 2E)
Procedure: Next, mRNA levels of HIF-1 target genes GLUT1, PDK1 and VEGF were measured. The primer sequences were Fwd 5′-TTTGGCTACAACACTGGAGTC-3′ (SEQ ID NO: 1) and Rev 5′-CATGCCCCCAACAGAAAAGAT-3′ (SEQ ID NO: 2) for GLUT1; Fwd 5′-CAGGACAGCCAATACAAGTGG-3′ (SEQ ID NO: 3) and Rev 5′-CATTACCCAGCGTGACATGAA-3′ (SEQ ID NO: 4) for PDK1; Fwd 5′-CCTTGCTGCTCTACCTCCAC-3′ (SEQ ID NO: 5) and Rev 5′-ATGATTCTGCCCTCCTCCTT-3′ (SEQ ID NO: 6) for VEGFA; and Fwd 5′-CATAGGAAGCTGGGAGCAAG-3′ (SEQ ID NO: 7) and Rev 5′-GCCCTCCAATCAGTCTTCTG-3′ (SEQ ID NO: 8) for RPL13A. […] Taken together, it was identified that LW1564 (compound 21-3) suppressed HIF-1α accumulation through stimulated proteasome degradation, thereby reducing the mRNA expression of the target gene.

[6] = tested on: HepG2 cells; assay: HepG2 cell proliferation at different glucose concentrations; assay type: cell-based, human; conditions: low glucose (3 mM) versus high glucose (25 mM) medium (FIG. 5C)
Procedure: The glycolytic function is activated in many cancer cells. Accordingly, it was investigated whether LW1564 (compound 21-3) affected cancer cell proliferation according to glucose concentration. […] Next, in order to investigate the combined effect of LW1564 (compound 21-3), […] on the proliferation of HepG2 cells, Combination Index (CI) and isobologram analysis were performed. The CI value quantitatively represents the correlation between two drugs through GI50 analysis indicating the cell proliferation suppression concentration, and synergistic, additive and antagonistic effects are defined as CI<1, CI=1 and CI>1.

[7] = tested on: HIF-1α; assay: Western blot of HIF-1α accumulation in HepG2 cells; assay type: cell-based, human
[8] = tested on: mitochondrial respiration; assay: Oxygen consumption rate (OCR), Oxytherm Clark-type electrode, HepG2 cells; assay type: cell-based, human; conditions: 2 μM, 6 hours (FIG. 3A)
Procedure: Compounds that suppress mitochondrial respiration promote degradation of HIF-1α by increasing cellular oxygen content. Accordingly, it was investigated whether LW1564 (compound 21-3) affected mitochondrial respiration by measuring the oxygen consumption rate (OCR). Oxygen consumption was measured using an Oxytherm Clark-type electrode system (Hansatech, Norfolk, UK) (Chou, T. C. Theoretical basis, experimental design, and computerized simulation of synergism and antagonism in drug combination studies. Pharmacol. Rev. 58, 621-681 (2006)). HepG2 cells (2×10^7) were cultured with 2 μM LW1564 (compound 21-3) for 6 hours, collected, and then OCR was measured at 37° C. for 5 minutes with a thermoregulated controlled circulating system. For […] studies, digitonin-permeabilised HepG2 cells (2×10^7) were read on a detection device containing 2 ml of respiratory buffer (0.25 M sucrose, 2 mM KH2PO4, 5 mM MgCl2, 1 mM EDTA, 1 mM ADP, 20 mM MOPS, pH 7.4). The following substrates, which provide electrons to the components in the ETC, were then added: 5 mM sodium pyruvate, 5 mM sodium malate, 5 mM sodium succinate, 5 mM L-ascorbic acid and 0.2 mM N,N,N,N-tetra methyl-p-phenylenediamine (TMPD). Complex I, III and IV inhibitors (rotenone, antimycin A and KCN, respectively) were added to a final concentration of 1 μM.

COc1cc2c(cc1OC)CN(C(=O)C13CC4CC(C1)CC(c1ccc(OCC(=O)N5CCN(Cc6ccc(C(F)(F)F)cc6)CC5)cc1)(C4)C3)CC2 [Compound 21c, 2-(4-(3-(6,7-Dimethoxy-1,2,3,4-tetrahydroisoquinoline-2-carbonyl)adamantan-1-yl)phenoxy)-1-(4-(4-(trifluoromethyl)benzyl)piperazin-1-yl) ethanone] was tested, and the “weight of the tumors removed from the mice” value ([1]; 10 mg/kg intraperitoneally daily for 2 weeks (FIG. 6 middle)) was “reduced”, the “reduction in tumor size compared to the control group” value ([1]; 10 mg/kg intraperitoneally daily for 2 weeks, female nude mice (FIG. 6 left)) was 67% and the “MAR fluorescence (hypoxia probe)” value [2] was “significantly reduced fluorescence”. The “phosphorylation of mTOR” value ([3]; concentration-dependent (FIG. 5A)) was “suppressed phosphorylation of mTOR”, the “phosphorylation of AMPK and ACC” value ([3]; western blot (FIG. 5A)) was “promoted phosphorylation of AMPK and its downstream protein, Acetyl-CoA carboxylase (ACC)” and the “oxygen consumption rate in the presence of succinate” value [4] was “did not affect the oxygen consumption rate”. The “mRNA amount of HIF-1 target genes GLUT1, PDK1 and VEGF” value [5] was “decreased the mRNA amount of GLUT1, PDK1 and VEGF”, the “cell proliferation suppression according to glucose concentration” value [6] was “stronger cell proliferation suppression efficacy in cells in a medium with a low glucose concentration (3 mM)” and the “HIF-1α protein amount in the presence of cobalt chloride” value ([7]; Western blot, cobalt chloride (FIG. 2B)) was “did not affect HIF-la protein amount”. For the same molecule, the “accumulation of HIF-1α” value ([7]; hypoxic conditions (FIG. 2B)) was “suppressed the accumulation of HIF-1α in a concentration-dependent manner” and the “oxygen consumption rate (OCR)” value [8] was “significantly suppressed OCR”.
